Results taken from ChEMBL document CHEMBL1201862, “PubChem BioAssay data set” (2004).
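How tested: cells in 96-well plates exposed to compound for 48 hours at five concentrations. GI50 marks 50% less growth.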 Activity calls are given as the source filed them. Rule as the data show it: active = GI50 up to about 1.1 µM and inactive = higher.

Assays:
Test in all cases: NCI-60 cell line screen, 48 h
A549 = test system: A549
SR = test system: SR
NCI-H226 = test system: NCI-H226
SW-620 = test system: SW-620
HCC 2998 = test system: HCC 2998
OVCAR-5 = test system: OVCAR-5
RPMI-8226 = test system: RPMI-8226
HOP-92 = test system: HOP-92
SNB-19 = test system: SNB-19
KM-20L2 = test system: KM-20L2
IGROV-1 = test system: IGROV-1
LOX IMVI = test system: LOX IMVI
SN12C = test system: SN12C
COLO 205 = test system: COLO 205
HOP-62 = test system: HOP-62
NCI-H460 = test system: NCI-H460
A498 = test system: A498
CCRF-CEM = test system: CCRF-CEM
RXF 393 = test system: RXF 393
BT-549 = test system: BT-549

Measured: GI50

CCOC(=O)C1=C(Nc2ccccc2)SCC1=O
inactive: A549 > 100 µM | SR > 100 µM | NCI-H226 > 100 µM | SW-620 > 100 µM | HCC 2998 > 100 µM | OVCAR-5 > 100 µM | RPMI-8226 > 100 µM | HOP-92 > 100 µM | SNB-19 > 100 µM | KM-20L2 > 100 µM | IGROV-1 > 100 µM | LOX IMVI > 100 µM | SN12C > 100 µM | COLO 205 > 100 µM | HOP-62 > 100 µM | NCI-H460 > 100 µM

CC(C)(C)C(=O)ON1N=NC2C3CC(OCc4ccccc4)(OCc4ccccc4)C(O3)C21 (stereo unspecified)
inactive: A549 32.7 µM | NCI-H226 17.7 µM | SW-620 14.9 µM | HCC 2998 14.2 µM | OVCAR-5 33.6 µM | A498 35.7 µM | RPMI-8226 7.38 µM | HOP-92 12 µM | KM-20L2 28.4 µM | IGROV-1 35.1 µM | LOX IMVI 15.4 µM | SN12C 19.3 µM | COLO 205 18.7 µM | HOP-62 28.3 µM | CCRF-CEM 4.4 µM | NCI-H460 24 µM | RXF 393 15.8 µM

N#CC(C(=O)CCC(=O)Nc1cccc(C(F)(F)F)c1)c1ccccc1 (stereo unspecified)
inactive: A549 > 100 µM | NCI-H226 > 100 µM | SW-620 > 100 µM | HCC 2998 > 100 µM | OVCAR-5 > 100 µM | A498 > 100 µM | RPMI-8226 > 100 µM | HOP-92 > 100 µM | SNB-19 > 100 µM | KM-20L2 > 100 µM | IGROV-1 > 100 µM | LOX IMVI > 100 µM | SN12C > 100 µM | HOP-62 > 100 µM | CCRF-CEM > 100 µM | NCI-H460 > 100 µM | RXF 393 > 100 µM

Cc1ccc(C(=O)C(Cl)C(Cl)c2ccc(C)cc2)cc1 (stereo unspecified)
active: CCRF-CEM 0.622 µM
inactive: A549 21.9 µM | SR 1.82 µM | NCI-H226 5.04 µM | SW-620 2.39 µM | HCC 2998 2.03 µM | OVCAR-5 7.87 µM | A498 16.3 µM | RPMI-8226 1.56 µM | HOP-92 2.4 µM | SNB-19 8.2 µM | IGROV-1 2.58 µM | BT-549 3.78 µM | LOX IMVI 1.87 µM | SN12C 1.82 µM | COLO 205 2.07 µM | HOP-62 18.1 µM | NCI-H460 8.38 µM | RXF 393 7.46 µM

O=C(O)C1C2c3ccccc3C(c3ccccc32)C1C(=O)NCC1CC1 (stereo unspecified)
inactive: A549 62.2 µM | SR 45 µM | NCI-H226 60.4 µM | SW-620 50.2 µM | HCC 2998 13.5 µM | OVCAR-5 > 100 µM | A498 78 µM | RPMI-8226 24.7 µM | HOP-92 70.5 µM | SNB-19 > 100 µM | IGROV-1 72.6 µM | BT-549 60 µM | LOX IMVI 65.8 µM | SN12C 55.2 µM | COLO 205 54.5 µM | HOP-62 68.2 µM | CCRF-CEM 31.2 µM | NCI-H460 40.2 µM | RXF 393 97.5 µM

CSc1nc2c(ncn2C2OCC(O)C(O)C2O)c(=O)[nH]1 (stereo unspecified)
inactive: A549 > 100 µM | NCI-H226 > 100 µM | SW-620 > 100 µM | HCC 2998 > 100 µM | OVCAR-5 > 100 µM | A498 > 100 µM | RPMI-8226 > 100 µM | HOP-92 > 100 µM | SNB-19 > 100 µM | KM-20L2 > 100 µM | IGROV-1 > 100 µM | LOX IMVI > 100 µM | SN12C > 100 µM | COLO 205 > 100 µM | HOP-62 > 100 µM | CCRF-CEM > 100 µM | NCI-H460 > 100 µM | RXF 393 > 100 µM

Cc1ccc([N+](=O)[O-])cc1S(=O)(=O)Nc1ccc(C2=NNC(c3ccccc3O)C2)cc1 (stereo unspecified)
inactive: A549 24.9 µM | SR 23.9 µM | NCI-H226 48.3 µM | SW-620 31 µM | HCC 2998 34.7 µM | OVCAR-5 32.4 µM | A498 19.9 µM | RPMI-8226 26.2 µM | HOP-92 79.3 µM | SNB-19 33.8 µM | IGROV-1 40.7 µM | BT-549 19.7 µM | LOX IMVI 34.8 µM | SN12C 23.9 µM | COLO 205 24.7 µM | HOP-62 21.1 µM | CCRF-CEM 16.6 µM | NCI-H460 25.7 µM | RXF 393 15.2 µM

O=c1[nH]c(=O)n(C2OC3COC2C3O)cc1F (stereo unspecified)
inactive: A549 > 100 µM | NCI-H226 41.5 µM | SW-620 > 100 µM | HCC 2998 > 100 µM | OVCAR-5 > 100 µM | RPMI-8226 > 100 µM | HOP-92 29.8 µM | SNB-19 > 100 µM | KM-20L2 > 100 µM | LOX IMVI > 100 µM | SN12C > 100 µM | COLO 205 > 100 µM | HOP-62 > 100 µM | CCRF-CEM > 100 µM | NCI-H460 > 100 µM | RXF 393 > 100 µM
